In one assay the test system is SN40R2 cells. The assay can be described thus: Protocol B: SN40R2 CellTiter-Glo luminescent cell viability assay. To be noted: for inhibition at 10 µM: read-out: SN40R2 % inhibition at 10, Protocol B, SN40R2, at 10 μM; for inhibition at 3 µM: read-out: SN40R2 % inhibition at 3, Protocol B, SN40R2, at 3 μM. (ATP-based viability assays read luminescence as a measure of living cells.)

For another assay, the target named is MDM2-p53 interaction (Homo sapiens (Human), UniProt Q00987). As to conditions: for inhibition at 0.03 µM: read-out: MDM2 % inhibition @0.030; for inhibition at 0.001 µM: read-out: MDM2 % inhibition @0.0010; for inhibition at 0.003 µM: read-out: MDM2 % inhibition @0.0030.
Chain of MDM2-p53 interaction (Q00987 whole entry): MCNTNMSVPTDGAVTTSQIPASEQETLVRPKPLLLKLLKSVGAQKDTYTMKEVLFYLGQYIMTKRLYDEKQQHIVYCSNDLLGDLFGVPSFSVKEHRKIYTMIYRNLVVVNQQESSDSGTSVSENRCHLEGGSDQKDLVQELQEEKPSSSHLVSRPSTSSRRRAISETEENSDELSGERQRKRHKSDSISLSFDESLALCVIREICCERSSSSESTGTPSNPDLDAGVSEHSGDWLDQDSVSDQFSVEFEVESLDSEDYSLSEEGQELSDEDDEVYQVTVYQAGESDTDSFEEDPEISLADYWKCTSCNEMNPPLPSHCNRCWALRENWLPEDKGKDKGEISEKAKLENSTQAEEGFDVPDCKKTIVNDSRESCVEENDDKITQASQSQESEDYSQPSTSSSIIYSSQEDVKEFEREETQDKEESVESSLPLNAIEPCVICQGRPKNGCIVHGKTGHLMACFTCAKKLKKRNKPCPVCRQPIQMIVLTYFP
The test system of the next assay is SJSA-1 cells. The assay can be described thus: Protocol B: SJSA-1 CellTiter-Glo luminescent cell viability assay.

pIC50: −log10 of the molar value.

Procedure for MDM2-p53 interaction: MDM2-053 Interaction Using a 96-Well Plate Binding Assay (ELISA)
The ELISA assay was performed in streptavidin coated plates which were preincubated with 200 μl per well of 1 μg ml^−1 biotinylated IP3 peptide. The plates were ready to use for MDM2 binding after washing the plate with PBS.
The bound HRP activity was measured by enhanced chemiluminesence (ECL™, Amersham Biosciences) using the oxidation of the diacylhydrazide substrate, luminol, to generate a quantifiable light signal. The percentage of MDM2 inhibition at a given concentration is calculated as the [1−(RLU detected in the compound treated sample−RLU negative DMSO control)÷(RLU of DMSO positive and negative controls)]×100 or as the (RLU detected in the compound treated sample÷RLU of DMSO controls)×100. The IC50 was calculated using a plot of % MDM2 inhibition vs concentration and is the average of two or three independent experiments.
Procedure for SJSA-1 cells: Protocol B: SJSA-1 and SN40R2 Assays
(§1) The CellTiter-Glo® Luminescent Cell Viability Assay is a homogeneous method to determine the number of viable cells in culture based on quantitation of the ATP present, which signals the presence of metabolically active cells. […] 100 μl of CTG reagent (Promega #G7573) was added to all wells and luminescence was measured on the topcount. The EC50 values were determined from a sigmoidal 4 parameter curve fit using XLfit in conjunction with Activity Base (IDBS; Guildford, Surrey, UK).
Procedure for SN40R2 cells: Protocol B: SJSA-1 and SN40R2 Assays
as §1

A word on the inhibition: it is the relative decrease from the control value, in per cent. With `Cc1c[nH]c(C(C)(O)c2cc(F)c3c(c2)C(=O)N(Cc2ccc(Cl)cn2)[C@@]3(OCC2(O)CC2)c2ccc(Cl)cc2)n1` (mixture of isomers) [Example 332, (3R)-3-(4-chlorophenyl)-2-[(5-chloropyridin-2-yl)methyl]-4-fluoro-6-[1-hydroxy-1-(4-methyl-1H-imidazol-2-yl)ethyl]-3-[(1-hydroxycyclopropyl)methoxy]-2,3-dihydro-1H-isoindol-1-one], in the assay on SN40R2 cells, the inhibition at 10 µM was 5%. The inhibition at 0.03 µM on MDM2-p53 interaction came to 60%.
For `CCC(O)(c1cc(F)c2c(c1)C(=O)N(Cc1ncc(Cl)cn1)[C@@]2(O[C@H]1CCOC1)c1ccc(Cl)cc1)C1CCNCC1` (single isomer, unassigned) [Example 448], in the assay with SN40R2 cells (read-out: SN40R2 % inhibition at 30, Protocol B, SN40R2, at 30 μM), the inhibition at 30 µM amounted to 48%. Further, the inhibition at 0.001 µM at MDM2-p53 interaction stood at 84%.
For `CCC(O)(c1cc(F)c2c(c1)C(=O)N(Cc1ncc(Cl)cn1)[C@@]2(O[C@H]1CCOC1)c1ccc(Cl)cc1)C1CCN(C)CC1` (single isomer, unassigned) [Example 449], in the assay on SN40R2 cells, the inhibition at 10 µM stood at 19%. Further, the inhibition at 0.001 µM at MDM2-p53 interaction stood at 78%.
As for `CCCC(O)(c1cc(F)c2c(c1)C(=O)N(Cc1ccc(C#N)cn1)[C@@]2(O[C@H]1CCOC1)c1ccc(Cl)cc1)c1cn(C)cn1` (single isomer, unassigned) [Example 472], the inhibition at 10 µM with SN40R2 cells turned out to be 10%. Moreover, on MDM2-p53 interaction, the inhibition at 0.003 µM was 48%.
Turning to `CCC(O)(c1cc(F)c2c(c1)C(=O)N(Cc1ncc(Cl)cc1O)[C@@]2(O[C@H]1C[C@@H](O)C1)c1ccc(Cl)cc1)c1cn(C)cn1` (single isomer, unassigned) [Example 487], in the assay with SN40R2 cells, the inhibition at 10 µM turned out to be 12%. Further, on MDM2-p53 interaction, the inhibition at 0.001 µM came out at 59%.
Take `CCC(O)(c1cc(F)c2c(c1)C(=O)N(Cc1ccc(C#N)cn1)[C@@]2(OC)c1ccc(Cl)cc1)[C@H]1CC[C@H](O)CC1` (single isomer, unassigned) [Example 521]: the inhibition at 10 µM in the assay with SN40R2 cells was determined as 11%. Further, the inhibition at 0.001 µM on MDM2-p53 interaction is 77%.
For the compound `CCC(O)(c1cc(F)c2c(c1)C(=O)N(Cc1ncc(Cl)cn1)[C@@]2(O[C@H]1C[C@@H](O)C1)c1ccc(Cl)cc1)C1(F)CCNCC1` (single isomer, unassigned) [Example 542], the inhibition at 10 µM in the assay on SN40R2 cells is -1%. Further, on MDM2-p53 interaction (read-out: MDM2 % inhibition @0.010), the inhibition at 0.01 µM amounted to 57%.
In the case of `CCC(O)(c1cc(F)c2c(c1)C(=O)N(Cc1ncc(Cl)cn1)[C@@]2(OC[C@@H](C)O)c1ccc(Cl)cc1)C1(F)CCNCC1` (single isomer, unassigned) [Example 543], in the assay with SN40R2 cells, the inhibition at 10 µM is -6%. In addition, at MDM2-p53 interaction, the inhibition at 0.001 µM came out at 68%.
With `CCC(O)(c1cc(F)c2c(c1)C(=O)N(Cc1ncc(Cl)cn1)[C@@]2(OC)c1ccc(Cl)cc1)C1(F)CCNCC1` (single isomer, unassigned) [Example 544], the inhibition at 10 µM in the assay with SN40R2 cells came to 109%. Further, on MDM2-p53 interaction, the inhibition at 0.001 µM was 86%.
On to `CCC(O)(c1cc(F)c2c(c1)C(=O)N(Cc1ncc(Cl)cn1)[C@@]2(OCC1(C#N)CC1)c1ccc(Cl)cc1)C1(F)CCNCC1` (single isomer, unassigned) [Example 545], for which the inhibition at 3 µM in the assay on SN40R2 cells was 4%. Further, the inhibition at 0.001 µM at MDM2-p53 interaction was determined as 94%.
As for `CCC(O)(c1cc(F)c2c(c1)C(=O)N(Cc1ccc(C#N)cn1)[C@@]2(O[C@H]1CCOC1)c1ccc(Cl)cc1)C1(F)CCNCC1` (single isomer, unassigned) [Example 546], the inhibition at 10 µM in the assay on SN40R2 cells was 17%. On MDM2-p53 interaction, the inhibition at 0.001 µM was 86%.
Regarding `CCC(O)(c1cc(F)c2c(c1)C(=O)N(Cc1ncc(C#N)cn1)[C@@]2(O[C@H]1CCOC1)c1ccc(Cl)cc1)C1(F)CCNCC1` (single isomer, unassigned) [Example 547], the inhibition at 10 µM with SN40R2 cells worked out at 4%. In addition, on MDM2-p53 interaction, the inhibition at 0.001 µM was 82%.
In the same order, the values of `CCC(O)(c1cc(F)c2c(c1)C(=O)N(Cc1ccc(Cl)cn1)[C@@]2(O[C@H]1CCOC1)c1ccc(Cl)cc1)C1(F)CCNCC1` (single isomer, unassigned) [Example 548] are 111% and 82%.
In the case of `CCC(O)(c1cc(F)c2c(c1)C(=O)N(Cc1ccc(Cl)cn1)[C@@]2(OC[C@@H](C)O)c1ccc(Cl)cc1)C1(F)CCNCC1` (single isomer, unassigned) [Example 549], the inhibition at 10 µM with SN40R2 cells is 33%. Further, the inhibition at 0.001 µM on MDM2-p53 interaction worked out at 85%.
With `CCC(O)(c1cc(F)c2c(c1)C(=O)N(Cc1ncc(Cl)cn1)[C@@]2(OC)c1ccc(Cl)cc1)C1(F)CCN(C2COC2)CC1` (single isomer, unassigned) [Example 552], the inhibition at 10 µM in the assay with SN40R2 cells is 7%. The inhibition at 0.001 µM at MDM2-p53 interaction was 79%.
As to `CN1CCC(C(C)(O)c2cc(F)c3c(c2)C(=O)N(Cc2ncc(Cl)cn2)[C@@]3(OCC2(F)COC2)c2ccc(Cl)cc2)CC1` (single isomer, unassigned) [Example 558], the inhibition at 10 µM in the assay on SN40R2 cells came out at 6%. Moreover, the inhibition at 0.003 µM at MDM2-p53 interaction was found to be 53%.
In the case of `CCC(O)(c1cc(F)c2c(c1)C(=O)N(Cc1ncc(C#N)cn1)[C@@]2(O[C@H]1CCOC1)c1ccc(Cl)cc1)C1(F)CCN(C)CC1` (single isomer, unassigned) [Example 561], the inhibition at 10 µM in the assay with SN40R2 cells was found to be 12%. Moreover, the inhibition at 0.001 µM on MDM2-p53 interaction was determined as 47%.
In the same order, the values of `CCC(O)(c1cc(F)c2c(c1)C(=O)N(Cc1ncc(Cl)cn1)[C@@]2(OC)c1ccc(Cl)cc1)C1(F)CCN(C)CC1` (single isomer, unassigned) [Example 563] are 72% and 76%.
As for `CCC(O)(c1cc(F)c2c(c1)C(=O)N(Cc1ncc(Cl)cn1)[C@@]2(OCC1(C#N)CC1)c1ccc(Cl)cc1)C1(F)CCN(C)CC1` (single isomer, unassigned) [Example 564], in the assay with SN40R2 cells, the inhibition at 3 µM was 10%. Further, the inhibition at 0.001 µM at MDM2-p53 interaction was 86%.
On to `CCC(O)(c1cc(F)c2c(c1)C(=O)N(Cc1ncc(Cl)cn1)[C@@]2(OCCO)c1ccc(Cl)cc1)C1(F)CCN(C)CC1` (single isomer, unassigned) [Example 565], for which the inhibition at 10 µM in the assay on SN40R2 cells stood at 11%. Also, the inhibition at 0.001 µM on MDM2-p53 interaction came to 65%.
Regarding `CCC(O)(c1cc(F)c2c(c1)C(=O)N(Cc1ncc(Cl)cn1)[C@@]2(O[C@H]1C[C@@H](O)C1)c1ccc(Cl)cc1)C1(F)CCN(C)CC1` (single isomer, unassigned) [Example 570], in the assay on SN40R2 cells, the inhibition at 10 µM was found to be 26%. At MDM2-p53 interaction, the inhibition at 0.001 µM worked out at 83%.
On to `CCC(O)(c1cc(F)c2c(c1)C(=O)N(Cc1ncc(Cl)cn1)[C@@]2(O[C@H]1CCOC1)c1ccc(Cl)cc1)C1(F)CCN(C)CC1` (single isomer, unassigned) [Example 571], for which the inhibition at 10 µM with SN40R2 cells was found to be 38%. For the same compound, at MDM2-p53 interaction, the inhibition at 0.001 µM came to 77%.
`CCC(O)(c1cc(F)c2c(c1)C(=O)N(Cc1ncc(C#N)cn1)[C@@]2(OCC1(C#N)CC1)c1ccc(Cl)cc1)C1(F)CCN(C)CC1` (single isomer, unassigned) [Example 574]: the inhibition at 10 µM with SN40R2 cells was 27%. Also, the inhibition at 0.001 µM on MDM2-p53 interaction stood at 45%.
Regarding `CCC(O)(c1cc(F)c2c(c1)C(=O)N(Cc1ncc(C#N)cn1)[C@@]2(OC)c1ccc(Cl)cc1)C1(F)CCN(C)CC1` (single isomer, unassigned) [Example 575], the inhibition at 10 µM with SN40R2 cells was found to be 14%. Also, the inhibition at 0.001 µM on MDM2-p53 interaction worked out at 38%.
Take `CCC(O)(c1cc(F)c2c(c1)C(=O)N(Cc1ccc(C#N)cn1)[C@@]2(OCCO)c1ccc(Cl)cc1)C1(F)CCOCC1` (stereo partly drawn) [Example 500, 6-{[(1R)-1-(4-chlorophenyl)-7-fluoro-5-[1-(4-fluorooxan-4-yl)-1-hydroxypropyl]-1-(2-hydroxyethoxy)-3-oxo-2,3-dihydro-1H-isoindol-2-yl]methyl}pyridine-3-carbonitrile]: the inhibition at 0.1 µM at MDM2-p53 interaction (read-out: MDM2 % inhibition @0.10) came out at 21%. In the assay with SJSA-1 cells (Homo sapiens, SJSA-1, read-out: SJSA1 % inhibition at 10), the inhibition at 10 µM came to 16%.
In the case of `CCC(O)(c1cc(F)c2c(c1)C(=O)N(Cc1ncc(C#N)cn1)[C@@]2(OC)c1ccc(Cl)cc1)[C@H]1CC[C@H](O)CC1` (stereo partly drawn) [Example 504, 2-{[(1R)-1-(4-chlorophenyl)-7-fluoro-5-{1-hydroxy-1-[trans-4-hydroxycyclohexyl]propyl}-1-methoxy-3-oxo-2,3-dihydro-1H-isoindol-2-yl]methyl}pyrimidine-5-carbonitrile], in the assay on SN40R2 cells, the inhibition at 10 µM stood at 0%. Besides, the inhibition at 0.001 µM at MDM2-p53 interaction was determined as 71%.
For the compound `CC[C@@](O)(c1cc(F)c2c(c1)C(=O)N(Cc1ncc(C#N)cn1)[C@@]2(O[C@H]1C[C@@H](O)C1)c1ccc(Cl)cc1)C1(F)CCOCC1` [Example 505, 2-{[(1R)-1-(4-chlorophenyl)-7-fluoro-5-[(1R)-1-(4-fluorooxan-4-yl)-1-hydroxypropyl]-3-oxo-1-[cis-3-hydroxycyclobutoxy]-2,3-dihydro-1H-isoindol-2-yl]methyl}pyrimidine-5-carbonitrile], the inhibition at 10 µM in the assay with SN40R2 cells was determined as 5%. On MDM2-p53 interaction, the inhibition at 0.001 µM came to 60%.
As to `CC[C@](O)(c1cc(F)c2c(c1)C(=O)N(Cc1ncc(C#N)cn1)[C@@]2(O[C@H]1C[C@@H](O)C1)c1ccc(Cl)cc1)C1(F)CCOCC1` [Example 506, 2-{[(1R)-1-(4-chlorophenyl)-7-fluoro-5-[(1S)-1-(4-fluorooxan-4-yl)-1-hydroxypropyl]-3-oxo-1-[cis-3-hydroxycyclobutoxy]-2,3-dihydro-1H-isoindol-2-yl]methyl}pyrimidine-5-carbonitrile], the inhibition at 10 µM in the assay with SN40R2 cells worked out at 2%. Further, the inhibition at 0.03 µM at MDM2-p53 interaction worked out at 36%.
As a reminder, the pIC50 is −log10 of the IC50, conventionally taken in molar units. Regarding `CCC(O)(c1cc(F)c2c(c1)C(=O)N(Cc1ccc(C#N)cn1)[C@@]2(OC1CC(O)C1)c1ccc(Cl)cc1)[C@H]1CC[C@H](O)CC1` (stereo partly drawn) [Example 520, 6-{[(1R)-1-(4-chlorophenyl)-7-fluoro-5-{1-hydroxy-1-[trans-4-hydroxycyclohexyl]propyl}-3-oxo-1-[cis-3-hydroxycyclobutoxy]-2,3-dihydro-1H-isoindol-2-yl]methyl}pyridine-3-carbonitrile], the inhibition at 0.03 µM at MDM2-p53 interaction turned out to be 32%. Moreover, in the assay on SJSA-1 cells (read-out: SJSA1 IC50, Protocol B, SJSA-1), the pIC50 is 5.41.

Source of the values: patent US11236047B2 (ASTEX THERAPEUTICS LIMITED, priority 2017, dated 2022).
